Test results as given in patent publication US12550899B2, “Topramezone derivative and use thereof” (priority 2023, dated 2026).
“Also recorded” adds a separate entry of the source.

Columns and labels:
Digitaria sanguinalis = experiment: Laboratory rainfastness test (foliar spray, simulated rainfall); type: in vivo; conditions: for Average fresh weight / Control efficacy: 20 days post-application
Protocol: Refer to the “Pesticides guidelines for laboratory bioactivity tests Part 4: Foliar spray application test for herbicide activity, NY/T 1155.4-2006”.
(§1) The soil used for the test was a mixture of surface 20 cm loam and vermiculite, mixed in a volume ratio of 3:1 to form a culture soil. The test weeds were cultured in a glass greenhouse with a temperature ranging from 25° C. to 35° C. and under natural light.
A measured quantity of Digitaria sanguinalis seeds were sown in plastic pots with a diameter of 9 cm, and covered with 1-2 mm of soil. The ports were then placed in enamel trays filled with water, and watered by bottom irrigation. After the water seeped to the soil surface, the pots were transferred to the glass greenhouse for standby.
(§2) Five dosages were set for Compound I, Compound II and the control herbicide Topramezone, which were 3.75, 7.5, 15, 30 and 60 grams of active ingredient per hectare respectively. In addition, a blank control was also prepared.
(§3) The required amount of the herbicide was accurately measured out and directly added with water, which was diluted to the required dosage by using the serial dilution method for standby.
(§4) The test was conducted on Digitaria sanguinalis at the two-leaf and one-heart stage, with the stems and leaves both sprayed uniformly. The ASS-4 automatic control spraying system with a fan-shaped nozzle was used indoors for herbicide application. Depending on the nozzle pressure and flow rate, 50 mL of herbicide solution was applied to a spraying area of 1.1 m^2 (which was equivalent to the water consumption of 30 L per mu). The system's operating speed was calibrated. The plastic pots to be treated were arranged evenly on the spraying platform to ensure uniform treatment. The spray pressure was set to 0.35 MPa, and the flow rate of the fan-shaped nozzle was set to 800 mL/min. The spraying was carried out in sequence from the low dosage to the high dosage. Each treatment was repeated four times.
The rainfastness test was set as follows: at 0.5 hours, 1.0 hour, 3.0 hours, and 6.0 hours after the application of the herbicide, the weeds that have already been sprayed with the herbicide were subjected to stem and leaf showering with a specific shower equipment simulating rainfall. Weeds that were not subjected to the showering treatment served as the control group.
The damage symptoms of the weeds (such as growth inhibition, chlorosis, malformation, etc.) were carefully recorded at 3, 7, 10, and 20 days after herbicide application. A visual comparison of the herbicide effectiveness was made after simulated rainfall at different time intervals. At 20 days post-application, the fresh weight of the aboveground parts of the weeds from each treatment group was measured, and the fresh weight control efficacy was calculated.
The treatment results were calculated according to the following formula: weed fresh weight control efficacy (%)=(control fresh weight−treatment fresh weight)/control fresh weight×100. A DPS statistical software was used to conduct regression analysis on the logarithmic values of the herbicide dosage and the probit values of the weed fresh weight control efficacy, and the correlation coefficient, GR50, GR90, and the 95% confidence interval were calculated.

[1] = system: grassy weeds and broadleaf weeds; experiment: Laboratory bioactivity efficacy test 2.2, visual observation of weeds; type: in vivo
Protocol: • grassy weeds: Digitaria sanguinalis, Eleusine indica, Echinochloa crusgalli; • Broadleaf weeds: Portulaca oleracea, Abutilon theophrasti medicus. 2.2.2 Test Conditions
as §1
Quantified seeds of Digitaria sanguinalis, Eleusine indica, Echinochloa crusgalli, Portulaca oleracea, and Abutilon theophrasti medicus were sown in plastic pots with a diameter of 9 cm, and covered with 1-2 mm of soil. The ports were then placed in enamel trays filled with water, and watered by bottom irrigation. After the water seeped to the soil surface, the pots were transferred to the glass greenhouse for standby.
as §2, §3
as §4, with “grassy weeds” for “Digitaria sanguinalis”, “one-heart stage, Abutilon theophrasti medicus at the 2-true-leaf stage, and Portulaca oleracea at the 3-5-leaf” for “one-heart”, “repeated two to” for “repeated”
The herbicide was applied once. After spraying, the pots were air-dried for one day and then placed in the glass greenhouse. Regular watering was conducted to maintain moisture.
The damage symptoms of the weeds (such as growth inhibition, chlorosis, malformation, etc.) were carefully recorded at 3, 7, 10, and 20 days after herbicide application. A visual comparison of the herbicide effectiveness was made. At 20 days post-application, the fresh weight of the aboveground parts of the weeds from each treatment group was measured, and the fresh weight control efficacy was calculated.

[2] = No spraying (no simulated rainfall), dosage 3.75 g/hectare
[3] = No spraying (no simulated rainfall), dosage 7.5 g/hectare
[4] = No spraying (no simulated rainfall), dosage 15 g/hectare
[5] = No spraying (no simulated rainfall), dosage 30 g/hectare
[6] = No spraying (no simulated rainfall), dosage 60 g/hectare
[7] = Spraying water 0.5 hour after herbicide application, dosage 3.75 g/hectare
[8] = Spraying water 0.5 hour after herbicide application, dosage 7.5 g/hectare
[9] = Spraying water 0.5 hour after herbicide application, dosage 15 g/hectare
[10] = Spraying water 0.5 hour after herbicide application, dosage 30 g/hectare
[11] = Spraying water 0.5 hour after herbicide application, dosage 60 g/hectare
[12] = Spraying water 1.0 hour after herbicide application, dosage 3.75 g/hectare
[13] = Spraying water 1.0 hour after herbicide application, dosage 7.5 g/hectare
[14] = Spraying water 1.0 hour after herbicide application, dosage 15 g/hectare
[15] = Spraying water 1.0 hour after herbicide application, dosage 30 g/hectare
[16] = Spraying water 1.0 hour after herbicide application, dosage 60 g/hectare
[17] = Spraying water 3.0 hour after herbicide application, dosage 3.75 g/hectare
[18] = Spraying water 3.0 hour after herbicide application, dosage 7.5 g/hectare
[19] = Spraying water 3.0 hour after herbicide application, dosage 15 g/hectare
[20] = Spraying water 3.0 hour after herbicide application, dosage 30 g/hectare
[21] = Spraying water 3.0 hour after herbicide application, dosage 60 g/hectare
[22] = Spraying water 6.0 hour after herbicide application, dosage 3.75 g/hectare
[23] = Spraying water 6.0 hour after herbicide application, dosage 7.5 g/hectare
[24] = Spraying water 6.0 hour after herbicide application, dosage 15 g/hectare
[25] = Spraying water 6.0 hour after herbicide application, dosage 30 g/hectare
[26] = Spraying water 6.0 hour after herbicide application, dosage 60 g/hectare

## Cc1c(C(=O)c2cnn(C)c2OC(=O)C(C)(C)C)ccc(S(C)(=O)=O)c1C1=NOCC1 [Compound II, 4-(3-(4,5-dihydroisoxazol-3-yl)-2-methyl-4-(methylsulfonyl)benzoyl)-1-methyl-1H-pyrazol-5-yl pivalate]
Digitaria sanguinalis; [2]
  Average fresh weight: 6.0 g
  Control efficacy: 8.8%
Digitaria sanguinalis; [3]
  Average fresh weight: 4.7 g
  Control efficacy: 28.7%
Digitaria sanguinalis; [4]
  Average fresh weight: 3.4 g
  Control efficacy: 47.9%
Digitaria sanguinalis; [5]
  Average fresh weight: 2.3 g
  Control efficacy: 64.4%
Digitaria sanguinalis; [6]
  Average fresh weight: 1.0 g
  Control efficacy: 84.7%
Digitaria sanguinalis; [7]
  Average fresh weight: 6.2 g
  Control efficacy: 5.7%
Digitaria sanguinalis; [8]
  Average fresh weight: 4.6 g
  Control efficacy: 29.1%
Digitaria sanguinalis; [9]
  Average fresh weight: 3.6 g
  Control efficacy: 45.2%
Digitaria sanguinalis; [10]
  Average fresh weight: 2.5 g
  Control efficacy: 62.1%
Digitaria sanguinalis; [11]
  Average fresh weight: 0.6 g
  Control efficacy: 90.8%
Digitaria sanguinalis; [12]
  Average fresh weight: 5.9 g
  Control efficacy: 10.0%
Digitaria sanguinalis; [13]
  Average fresh weight: 5.3 g
  Control efficacy: 18.8%
Digitaria sanguinalis; [14]
  Average fresh weight: 3.3 g
  Control efficacy: 49.0%
Digitaria sanguinalis; [15]
  Average fresh weight: 2.4 g
  Control efficacy: 64.0%
Digitaria sanguinalis; [16]
  Average fresh weight: 0.8 g
  Control efficacy: 88.5%
Digitaria sanguinalis; [17]
  Average fresh weight: 6.0 g
  Control efficacy: 8.8%
Digitaria sanguinalis; [18]
  Average fresh weight: 5.1 g
  Control efficacy: 22.2%
Digitaria sanguinalis; [19]
  Average fresh weight: 3.9 g
  Control efficacy: 40.6%
Digitaria sanguinalis; [20]
  Average fresh weight: 2.0 g
  Control efficacy: 70.1%
Digitaria sanguinalis; [21]
  Average fresh weight: 1.0 g
  Control efficacy: 84.7%
Digitaria sanguinalis; [22]
  Average fresh weight: 6.1 g
  Control efficacy: 6.5%
Digitaria sanguinalis; [23]
  Average fresh weight: 4.7 g
  Control efficacy: 27.6%
Digitaria sanguinalis; [24]
  Average fresh weight: 3.6 g
  Control efficacy: 44.8%
Digitaria sanguinalis; [25]
  Average fresh weight: 2.2 g
  Control efficacy: 66.7%
Digitaria sanguinalis; [26]
  Average fresh weight: 0.8 g
  Control efficacy: 87.4%
Digitaria sanguinalis; in vivo
  Rainfastness compared with Topramezone (in words): significantly better rainfastness
Digitaria sanguinalis; rain 0.5 h, 1.0 h and 3.0 h after application
  Effect of rain on control efficacy (in words): remained stable
Digitaria sanguinalis; rain 0.5 h after application
  Effect of rain on control efficacy (in words): little impact; also recorded: almost unaffected
[1]; 3 to 7 days after application, grassy weeds and broadleaf weeds like Portulaca oleracea
  Visual observation of weeds: gradually became whitened and withered
[1]; 10 days after application
  Visual observation of weeds: excellent treatment effects
[1]; 20 days after application
  Visual observation of weeds: dried up and died
